These results are taken from patent US20240382629A1, “HETEROBIVALENT AND HOMOBIVALENT AGENTS TARGETING FIBROBLAST ACTIVATION PROTEIN ALPHA AND/OR PROSTATE-SPECIFIC MEMBRANE ANTIGEN” (The Johns Hopkins University, priority 2021, published 2024).

This data set relates to U87 tumor. As to the kind of experiment: PET imaging and tissue biodistribution in U87 tumor-bearing mice. The data set is classed as in vivo, mouse. Also on record: Biodistribution: Saliv. Gland: unit not given here. The method, then: Cell uptake assays, flow cytometry, and IHC were performed as described previously. Banerjee et al., 2019; Nimmagadda et al., 2018. PET imaging and biodistribution Sequential PET imaging and biodistribution studies were conducted to quantify and validate PET imaging data. Briefly, tumor-bearing mice were administrated approximately 7.4 MBq of radiotracer in 150 μL saline via tail-vein injection. They were randomized into the indicated groups of 3-4 mice before radiotracer injection.
In Experiment 1, bilateral xenografts of U87 (right flank) and PSMA+ PC3 PIP (left flank) tumors were established in male NSG mice (n=3), which underwent imaging followed by biodistribution over 24 h. […] A biodistribution study was further conducted with U87 tumors at 2 h post-injection (n=3) to compare the tissue distribution properties of ^64Cu-FP-L1 and ^64Cu-FAPI-04.

The mark [1] stands for this setting: untitled table, radiolabel and time not given.
Where [2] appears, read: untitled table, radiolabel and time not given, in %ID/g.
The mark [3] stands for this setting: 2 h + 10 nmol Sri-06-98, dose 200 μCi, n=3, in %ID/g.
The mark [4] stands for this setting: 2 h, dose 200 μCi, n=3, in %ID/g.
[5] abbreviates: 4 h, dose 200 μCi, n=3, in %ID/g.
The mark [6] stands for this setting: head-to-head, 1 h, dose 20 μCi, n=5/group (FAPI-04 n = 3).

Regarding `N#CC1CCCN1C(=O)CNC(=O)c1ccnc2ccc(OCCCNC(=O)CCc3cn(CC[C@H](NC(=O)c4ccc(F)nc4)C(=O)NCCNC(=O)CN4CCN(CC(=O)O)CCN(CC(=O)O)CCN(CC(=O)O)CC4)nn3)cc12` (some centres unmarked) [SRI-07-56], the “Biodistribution: Saliv. Gland” value under setting [1] turned out to be 7.59 ± 3.44. Besides, under setting [2], the “Biodistribution: Bladder” value turned out to be 7.14 ± 3.21, the “Biodistribution: Blood” value is reported as 20.47 ± 8.29, the “Biodistribution: Bone” value is recorded as 4.47 ± 1.71 and the “Biodistribution: Fat” value is 0.49 ± 0.23. Besides, under setting [2], the “Biodistribution: Heart” value is given as 7.16 ± 3.22, the “Biodistribution: Kidney” value is on record as 5.16 ± 2.02, the “Biodistribution: Lacrim Gland” value came out at 4.32 ± 1.56 and the “Biodistribution: Liver” value is given as 6.87 ± 2.54. Also, under setting [2], the “Biodistribution: Lung” value was determined as 10.70 ± 4.41, the “Biodistribution: Muscle” value turned out to be 2.06 ± 0.95, the “Biodistribution: Pancreas” value came out at 10.62 ± 3.62 and the “Biodistribution: Sm Intest” value is given as 9.55 ± 3.91. In addition, under setting [2], the “Biodistribution: Spleen” value was 4.21 ± 1.74, the “Biodistribution: Stomach” value was found to be 3.73 ± 1.63 and the “Biodistribution: U87” value was 5.67 ± 2.42.

As for `N#C[C@@H]1CCCN1C(=O)CNC(=O)c1ccnc2ccc(OCCCN3CC4CN(C(=O)C(CCNC(=O)c5ccc(F)nc5)NC(=O)CN5CCN(CC(=O)O)CCN(CC(=O)O)CCN(CC(=O)O)CC5)CC4C3)cc12` (some centres unmarked) [SRI-08-37], the “Biodistribution: Saliv. Gland” value under setting [1] amounted to 11.70 ± 1.32. For the same compound, under setting [2], the “Biodistribution: Bladder” value turned out to be 4.28 ± 4.14, the “Biodistribution: Blood” value came to 4.59 ± 0.50, the “Biodistribution: Bone” value was determined as 6.37 ± 0.98 and the “Biodistribution: Fat” value is recorded as 1.04 ± 0.55. Further, under setting [2], the “Biodistribution: Heart” value was found to be 2.24 ± 1.02, the “Biodistribution: Kidney” value is 2.82 ± 0.06, the “Biodistribution: Lacrim Gland” value came to 9.11 ± 2.71 and the “Biodistribution: Liver” value was 2.02 ± 0.13. Further, under setting [2], the “Biodistribution: Lung” value is on record as 2.96 ± 0.38, the “Biodistribution: Muscle” value amounted to 2.74 ± 0.18, the “Biodistribution: Pancreas” value was found to be 6.76 ± 1.47 and the “Biodistribution: Sm Intest” value came out at 3.36 ± 0.76. Besides, under setting [2], the “Biodistribution: Spleen” value was found to be 1.45 ± 0.17, the “Biodistribution: Stomach” value was 1.85 ± 0.19 and the “Biodistribution: U87” value stood at 20.43 ± 1.73.

For the compound `N#CC1CCCN1C(=O)CNC(=O)c1ccnc2ccc(OCCCNC(=O)CCc3cn(CCCC[C@H](NC(=O)c4ccc(F)nc4)C(=O)NCCNC(=O)CN4CCN(CC(=O)O)CCN(CC(=O)O)CCN(CC(=O)O)CC4)nn3)cc12` (some centres unmarked) [SRI-08-35], the “Biodistribution: Saliv. Gland” value under setting [1] is recorded as 7.49 ± 1.17. Also, under setting [2], the “Biodistribution: Bladder” value was 1.59 ± 0.32, the “Biodistribution: Blood” value was found to be 15.40 ± 1.08, the “Biodistribution: Bone” value is listed as 3.75 ± 0.43 and the “Biodistribution: Fat” value turned out to be 0.56 ± 0.20. Under setting [2], the “Biodistribution: Heart” value amounted to 7.04 ± 0.93, the “Biodistribution: Kidney” value stood at 5.47 ± 0.73, the “Biodistribution: Lacrim Gland” value was 5.27 ± 1.52 and the “Biodistribution: Liver” value stood at 6.13 ± 0.67. Besides, under setting [2], the “Biodistribution: Lung” value amounted to 9.40 ± 1.61, the “Biodistribution: Muscle” value is listed as 1.94 ± 0.74, the “Biodistribution: Pancreas” value amounted to 10.46 ± 2.88 and the “Biodistribution: Sm Intest” value is on record as 8.20 ± 2.20. Further, under setting [2], the “Biodistribution: Spleen” value stood at 3.08 ± 0.27, the “Biodistribution: Stomach” value amounted to 2.17 ± 0.30 and the “Biodistribution: U87” value is 7.84 ± 1.95.

Turning to `N#C[C@@H]1CCCN1C(=O)CNC(=O)c1ccnc2ccc(OCCCNC(=O)CCc3cn(CCCC[C@H](NC(=O)CN4CCN(CC(=O)O)CCN(CC(=O)O)CC4)C(=O)NCCCOc4ccc5nccc(C(=O)NCC(=O)N6CCC[C@H]6C#N)c5c4)nn3)cc12` [^64Cu-Sri-06-98, metal not drawn], under setting [3], the “Biodistribution: Bladder” value amounted to 5.61 ± 7.96, the “Biodistribution: Blood” value is recorded as 0.27 ± 0.08, the “Biodistribution: Bone” value worked out at 0.59 ± 0.65 and the “Biodistribution: Fat” value was determined as 0.07 ± 0.02. Further, under setting [3], the “Biodistribution: Heart” value was 0.17 ± 0.01, the “Biodistribution: Kidney” value is on record as 1.57 ± 0.00, the “Biodistribution: Lacrimal gland” value came out at 0.16 ± 0.02 and the “Biodistribution: Liver” value is 0.68 ± 0.16. Moreover, under setting [3], the “Biodistribution: Lung” value amounted to 0.49 ± 0.01, the “Biodistribution: Muscle” value worked out at 0.09 ± 0.02, the “Biodistribution: Pancreas” value was determined as 0.21 ± 0.04 and the “Biodistribution: Salivary Glands” value is recorded as 0.34 ± 0.02. Under setting [3], the “Biodistribution: Small Intestine” value was 0.54 ± 0.08, the “Biodistribution: Spleen” value came to 0.25 ± 0.01, the “Biodistribution: Stomach” value was 0.31 ± 0.02 and the “Biodistribution: U87” value came out at 2.70 ± 1.00. Under setting [4], the “Biodistribution: Bladder” value stood at 1.63 ± 0.23, the “Biodistribution: Blood” value was found to be 3.49 ± 0.18, the “Biodistribution: Bone” value worked out at 2.91 ± 0.36 and the “Biodistribution: Fat” value is reported as 0.47 ± 0.02. Moreover, under setting [4], the “Biodistribution: Heart” value was 3.70 ± 0.22, the “Biodistribution: Kidney” value was determined as 2.00 ± 0.52, the “Biodistribution: Lacrimal gland” value is given as 5.07 ± 2.20 and the “Biodistribution: Liver” value worked out at 2.80 ± 0.31. Further, under setting [4], the “Biodistribution: Lung” value came to 2.62 ± 0.11, the “Biodistribution: Muscle” value is given as 2.46 ± 0.20, the “Biodistribution: Pancreas” value was found to be 4.59 ± 2.38 and the “Biodistribution: Salivary Glands” value worked out at 8.88 ± 1.37. Besides, under setting [4], the “Biodistribution: Small Intestine” value was 2.97 ± 0.33, the “Biodistribution: Spleen” value was 1.51 ± 0.14, the “Biodistribution: Stomach” value turned out to be 2.09 ± 1.00 and the “Biodistribution: U87” value is 7.64 ± 2.12. Moreover, under setting [5], the “Biodistribution: Bladder” value turned out to be 5.56 ± 1.53, the “Biodistribution: Blood” value was determined as 2.54 ± 0.37, the “Biodistribution: Bone” value is on record as 2.69 ± 0.14 and the “Biodistribution: Fat” value is reported as 0.50 ± 0.12. In addition, under setting [5], the “Biodistribution: Heart” value worked out at 2.40 ± 0.12, the “Biodistribution: Kidney” value is 1.67 ± 0.03, the “Biodistribution: Lacrimal gland” value was found to be 4.54 ± 0.44 and the “Biodistribution: Liver” value was 2.68 ± 0.08. Moreover, under setting [5], the “Biodistribution: Lung” value was found to be 2.04 ± 0.10, the “Biodistribution: Muscle” value worked out at 2.13 ± 0.14, the “Biodistribution: Pancreas” value is on record as 4.54 ± 0.62 and the “Biodistribution: Salivary Glands” value is 5.92 ± 0.57. Under setting [5], the “Biodistribution: Small Intestine” value is recorded as 2.69 ± 0.42, the “Biodistribution: Spleen” value is 1.14 ± 0.16, the “Biodistribution: Stomach” value is recorded as 1.60 ± 0.36 and the “Biodistribution: U87” value was determined as 11.15 ± 1.49.

Take `N#C[C@@H]1CCCN1C(=O)CNC(=O)c1ccnc2ccc(OCCCNC(=O)CCc3cn(CCCC[C@H](NC(=O)CN4CCN(CC(=O)O)CCN(CC(=O)O)CC4)C(=O)NCCCOc4ccc5nccc(C(=O)NCC(=O)N6CCC[C@H]6C#N)c5c4)nn3)cc12` [^64Cu-FAPI-74, metal not drawn, reference compound]: under setting [6], the “Biodistribution: Bladder” value is on record as 3.51 ± 0.30 % ID/g, the “Biodistribution: Blood” value is given as 2.48 ± 0.87 % ID/g, the “Biodistribution: Bone” value worked out at 7.94 ± 0.78 % ID/g and the “Biodistribution: Fat” value is given as 0.48 ± 0.43 % ID/g. Under setting [6], the “Biodistribution: Heart” value was 1.16 ± 0.28 % ID/g, the “Biodistribution: Kidney” value came out at 3.83 ± 2.31 % ID/g, the “Biodistribution: Lacrimal gland” value is given as 5.17 ± 1.51 % ID/g and the “Biodistribution: Liver” value is 1.69 ± 0.83 % ID/g. In addition, under setting [6], the “Biodistribution: Lung” value came out at 2.48 ± 0.64 % ID/g, the “Biodistribution: Muscle” value stood at 2.05 ± 0.84 % ID/g, the “Biodistribution: Pancreas” value stood at 2.09 ± 1.12 % ID/g and the “Biodistribution: Salivary Gland” value came out at 4.42 ± 0.55 % ID/g. For the same compound, under setting [6], the “Biodistribution: Small Intestine” value is recorded as 3.80 ± 2.06 % ID/g, the “Biodistribution: Spleen” value is 1.23 ± 0.41 % ID/g, the “Biodistribution: Stomach” value stood at 1.29 ± 0.45 % ID/g and the “Biodistribution: U87” value was 11.42 ± 1.11 % ID/g.

For `N#CC1CCCN1C(=O)CNC(=O)c1ccnc2ccc(OCCCN3CC4CN(C(=O)CN5CCN(CC(=O)O)CCN(CC(=O)O)CC5)CC4C3)cc12` (centres unmarked) [^64Cu-Sri-07-86, metal not drawn], under setting [6], the “Biodistribution: Bladder” value is listed as 5.55 ± 4.26 % ID/g, the “Biodistribution: Blood” value worked out at 2.54 ± 0.90 % ID/g, the “Biodistribution: Bone” value is recorded as 2.84 ± 0.83 % ID/g and the “Biodistribution: Fat” value was 0.31 ± 0.08 % ID/g. In addition, under setting [6], the “Biodistribution: Heart” value is on record as 1.04 ± 0.28 % ID/g, the “Biodistribution: Kidney” value worked out at 4.00 ± 1.28 % ID/g, the “Biodistribution: Lacrimal gland” value is given as 3.53 ± 2.93 % ID/g and the “Biodistribution: Liver” value is recorded as 1.97 ± 0.36 % ID/g. For the same compound, under setting [6], the “Biodistribution: Lung” value came to 2.02 ± 0.93 % ID/g, the “Biodistribution: Muscle” value came out at 1.65 ± 1.10 % ID/g, the “Biodistribution: Pancreas” value came out at 1.89 ± 0.57 % ID/g and the “Biodistribution: Salivary Gland” value is reported as 2.77 ± 0.53 % ID/g. Moreover, under setting [6], the “Biodistribution: Small Intestine” value is 3.15 ± 1.34 % ID/g, the “Biodistribution: Spleen” value is 1.13 ± 0.42 % ID/g, the “Biodistribution: Stomach” value was found to be 1.26 ± 0.45 % ID/g and the “Biodistribution: U87” value amounted to 6.55 ± 1.41 % ID/g.
